# Results: the kinase profiling compilation of Christmann-Franck et al. (2016)
# “And” between values parts separate entries of the source, which are not always exact repeats. Equal entries are not always repeated.
# Experiments:
# Experiment in all cases: radiometric filter-binding kinase assay, Kinase HotSpot
# Details in all cases: compound 0.5 µM; ATP 10 µM
# MARK1 (human) = MARK1 (human) (UniProt Q9P0L2)
# ACVRL1 (human) = ACVRL1 (human) (UniProt P37023)
# MAP3K3 (human) = MAP3K3 (human) (UniProt Q99759)
# LYN (human) = LYN (human) (UniProt P07948)
# TNK2 (human) = TNK2 (human) (UniProt Q07912)
# GRK4 (human) = GRK4 (human) (UniProt P32298)
# EPHA5 (human) = EPHA5 (human) (UniProt P54756)
# CDK1 CCNA2 (human) = CDK1 CCNA2 (human) (UniProt P06493+P20248)
# LIMK1 (human) = LIMK1 (human) (UniProt P53667)
# IKBKE (human) = IKBKE (human) (UniProt Q14164)
# BLK (human) = BLK (human) (UniProt P51451)
# STK4 (human) = STK4 (human) (UniProt Q13043)
# PRKCB1 (human) = PRKCB1 (human) (UniProt P05771)
# MARK2 (human) = MARK2 (human) (UniProt Q7KZI7)
# PHKG2 (human) = PHKG2 (human) (UniProt P15735)
# TAOK1 (human) = TAOK1 (human) (UniProt Q7L7X3)
# INSR (human) = INSR (human) (UniProt P06213)
# DAPK2 (human) = DAPK2 (human) (UniProt Q9UIK4)
# NEK3 (human) = NEK3 (human) (UniProt P51956)
# STK11 (human) = STK11 (human) (UniProt Q15831)
# PRKCG (human) = PRKCG (human) (UniProt P05129)
# NEK1 (human) = NEK1 (human) (UniProt Q96PY6)
# GRK6 (human) = GRK6 (human) (UniProt P43250)
# TSSK1B (human) = TSSK1B (human) (UniProt Q9BXA7)
# NUAK2 (human) = NUAK2 (human) (UniProt Q9H093)
# PAK7 (human) = PAK7 (human) (UniProt Q9P286)
# DCLK2 (human) = DCLK2 (human) (UniProt Q8N568)
# CAMK4 (human) = CAMK4 (human) (UniProt Q16566)
# BMX (human) = BMX (human) (UniProt P51813)
# LRRK2 (human) = LRRK2 (human) (UniProt Q5S007)
# AURKC (human) = AURKC (human) (UniProt Q9UQB9)
# PRKCE (human) = PRKCE (human) (UniProt Q02156)
# STK10 (human) = STK10 (human) (UniProt O94804)
# MAP3K9 (human) = MAP3K9 (human) (UniProt P80192)
# STK25 (human) = STK25 (human) (UniProt O00506)
# CDK4 CCND1 (human) = CDK4 CCND1 (human) (UniProt P24385+P11802)
# CSK (human) = CSK (human) (UniProt P41240)
# PTK2B (human) = PTK2B (human) (UniProt Q14289)
# MAP3K11 (human) = MAP3K11 (human) (UniProt Q16584)
# CDK4 CCND3 (human) = CDK4 CCND3 (human) (UniProt P30281+P11802)
# DYRK4 (human) = DYRK4 (human) (UniProt Q9NR20)
# PASK (human) = PASK (human) (UniProt Q96RG2)
# Chain of LYN (human) (P07948 whole entry, looked up): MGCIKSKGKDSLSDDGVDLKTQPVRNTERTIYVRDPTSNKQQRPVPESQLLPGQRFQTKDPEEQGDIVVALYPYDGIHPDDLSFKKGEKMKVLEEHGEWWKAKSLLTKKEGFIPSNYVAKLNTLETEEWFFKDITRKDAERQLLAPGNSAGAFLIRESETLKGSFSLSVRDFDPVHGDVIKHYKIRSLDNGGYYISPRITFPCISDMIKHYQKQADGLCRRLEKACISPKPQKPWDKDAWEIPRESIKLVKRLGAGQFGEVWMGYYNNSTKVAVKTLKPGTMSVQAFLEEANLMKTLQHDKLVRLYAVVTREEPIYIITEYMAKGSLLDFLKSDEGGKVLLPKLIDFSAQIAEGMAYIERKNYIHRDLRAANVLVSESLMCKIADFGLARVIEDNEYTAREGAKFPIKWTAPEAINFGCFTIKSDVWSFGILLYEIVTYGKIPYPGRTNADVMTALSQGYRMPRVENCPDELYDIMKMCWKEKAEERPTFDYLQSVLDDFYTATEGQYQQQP
# Chain of MAP3K11 (human) (Q16584 whole entry, looked up): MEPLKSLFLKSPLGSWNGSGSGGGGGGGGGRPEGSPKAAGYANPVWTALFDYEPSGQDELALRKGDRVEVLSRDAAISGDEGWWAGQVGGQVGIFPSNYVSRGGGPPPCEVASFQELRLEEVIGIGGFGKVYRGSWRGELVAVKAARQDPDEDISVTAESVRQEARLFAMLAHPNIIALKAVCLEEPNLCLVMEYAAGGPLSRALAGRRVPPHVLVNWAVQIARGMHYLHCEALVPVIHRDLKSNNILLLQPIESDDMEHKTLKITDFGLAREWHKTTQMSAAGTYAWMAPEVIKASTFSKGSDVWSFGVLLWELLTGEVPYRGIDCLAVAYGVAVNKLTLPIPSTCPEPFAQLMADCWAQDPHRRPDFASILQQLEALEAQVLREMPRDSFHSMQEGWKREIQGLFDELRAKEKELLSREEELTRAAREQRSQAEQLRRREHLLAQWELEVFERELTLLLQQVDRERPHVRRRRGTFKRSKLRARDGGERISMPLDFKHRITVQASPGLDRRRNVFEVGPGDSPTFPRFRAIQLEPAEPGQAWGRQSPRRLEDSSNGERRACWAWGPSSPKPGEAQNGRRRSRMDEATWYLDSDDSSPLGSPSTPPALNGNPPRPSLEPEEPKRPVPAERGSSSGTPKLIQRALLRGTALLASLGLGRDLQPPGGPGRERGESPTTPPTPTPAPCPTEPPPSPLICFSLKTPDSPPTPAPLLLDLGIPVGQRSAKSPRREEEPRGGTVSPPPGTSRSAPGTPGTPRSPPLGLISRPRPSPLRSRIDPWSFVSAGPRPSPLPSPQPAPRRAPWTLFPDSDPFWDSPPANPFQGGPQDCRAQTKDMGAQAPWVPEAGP
# Chain of DYRK4 (human) (Q9NR20 whole entry, looked up): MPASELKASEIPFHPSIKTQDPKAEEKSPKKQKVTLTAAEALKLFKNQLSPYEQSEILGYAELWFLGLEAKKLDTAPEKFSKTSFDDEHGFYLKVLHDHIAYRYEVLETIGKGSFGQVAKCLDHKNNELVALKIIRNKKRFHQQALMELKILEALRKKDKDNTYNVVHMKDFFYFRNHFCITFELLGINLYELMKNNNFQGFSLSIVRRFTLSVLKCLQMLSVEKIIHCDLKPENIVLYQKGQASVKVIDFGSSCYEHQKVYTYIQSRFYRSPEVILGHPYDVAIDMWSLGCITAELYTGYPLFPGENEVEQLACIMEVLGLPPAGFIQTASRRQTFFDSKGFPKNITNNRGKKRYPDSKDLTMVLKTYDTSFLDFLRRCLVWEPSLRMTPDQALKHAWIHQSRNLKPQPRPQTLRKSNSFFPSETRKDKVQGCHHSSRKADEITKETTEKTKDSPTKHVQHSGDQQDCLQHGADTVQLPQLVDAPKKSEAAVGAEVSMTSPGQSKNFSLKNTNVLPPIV
# Chain of STK4 (human) (Q13043 whole entry, looked up): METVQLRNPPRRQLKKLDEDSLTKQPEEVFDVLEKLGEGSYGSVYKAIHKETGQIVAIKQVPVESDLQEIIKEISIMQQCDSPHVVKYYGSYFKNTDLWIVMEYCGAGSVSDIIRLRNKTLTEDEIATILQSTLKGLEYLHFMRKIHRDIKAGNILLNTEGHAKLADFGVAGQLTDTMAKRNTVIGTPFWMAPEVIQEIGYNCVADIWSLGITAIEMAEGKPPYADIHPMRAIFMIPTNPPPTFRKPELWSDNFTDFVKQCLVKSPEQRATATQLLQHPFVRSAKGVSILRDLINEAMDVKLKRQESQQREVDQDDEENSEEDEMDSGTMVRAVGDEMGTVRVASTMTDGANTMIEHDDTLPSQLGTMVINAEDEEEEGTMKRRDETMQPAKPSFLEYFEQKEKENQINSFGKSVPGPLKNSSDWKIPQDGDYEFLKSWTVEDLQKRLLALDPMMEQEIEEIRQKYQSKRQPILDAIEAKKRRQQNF
# Chain of NUAK2 (human) (Q9H093 whole entry, looked up): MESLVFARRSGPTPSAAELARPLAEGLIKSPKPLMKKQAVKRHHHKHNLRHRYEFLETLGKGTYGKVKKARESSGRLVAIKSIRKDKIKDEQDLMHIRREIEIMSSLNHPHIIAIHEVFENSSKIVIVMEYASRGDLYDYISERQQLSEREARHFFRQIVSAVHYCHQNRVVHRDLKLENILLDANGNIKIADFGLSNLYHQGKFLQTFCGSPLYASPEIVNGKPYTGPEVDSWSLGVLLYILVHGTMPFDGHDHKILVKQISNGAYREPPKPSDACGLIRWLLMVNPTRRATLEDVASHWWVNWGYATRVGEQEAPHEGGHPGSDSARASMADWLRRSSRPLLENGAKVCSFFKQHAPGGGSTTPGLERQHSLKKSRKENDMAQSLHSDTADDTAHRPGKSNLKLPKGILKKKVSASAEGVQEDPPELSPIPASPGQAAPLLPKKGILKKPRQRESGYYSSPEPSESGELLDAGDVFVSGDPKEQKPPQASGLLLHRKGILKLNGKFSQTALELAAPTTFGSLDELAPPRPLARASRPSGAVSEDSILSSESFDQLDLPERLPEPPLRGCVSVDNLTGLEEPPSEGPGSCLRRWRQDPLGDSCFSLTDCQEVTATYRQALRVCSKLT
# Chain of STK25 (human) (O00506 whole entry, looked up): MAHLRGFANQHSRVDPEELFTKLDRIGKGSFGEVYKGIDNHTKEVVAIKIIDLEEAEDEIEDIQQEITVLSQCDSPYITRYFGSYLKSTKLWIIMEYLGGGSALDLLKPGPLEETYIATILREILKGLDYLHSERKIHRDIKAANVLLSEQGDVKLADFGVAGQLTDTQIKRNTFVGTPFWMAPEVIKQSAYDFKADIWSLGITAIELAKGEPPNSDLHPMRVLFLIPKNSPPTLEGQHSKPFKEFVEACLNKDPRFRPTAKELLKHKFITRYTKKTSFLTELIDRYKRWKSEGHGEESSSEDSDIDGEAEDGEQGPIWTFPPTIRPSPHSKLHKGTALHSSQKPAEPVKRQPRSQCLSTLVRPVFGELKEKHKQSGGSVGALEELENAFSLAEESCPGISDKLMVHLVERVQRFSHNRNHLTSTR
# Chain of CDK4 CCND1 (human) (P11802 whole entry, looked up): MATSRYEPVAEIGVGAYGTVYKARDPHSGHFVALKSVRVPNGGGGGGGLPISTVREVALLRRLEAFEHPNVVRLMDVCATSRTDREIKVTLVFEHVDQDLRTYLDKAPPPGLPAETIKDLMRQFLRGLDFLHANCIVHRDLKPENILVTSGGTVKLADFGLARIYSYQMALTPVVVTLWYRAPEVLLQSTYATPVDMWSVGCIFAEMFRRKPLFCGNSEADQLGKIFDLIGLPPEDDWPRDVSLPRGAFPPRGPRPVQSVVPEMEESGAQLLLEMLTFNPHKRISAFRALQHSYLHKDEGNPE
# Chain of CDK4 CCND1 (human) (P24385 whole entry, looked up): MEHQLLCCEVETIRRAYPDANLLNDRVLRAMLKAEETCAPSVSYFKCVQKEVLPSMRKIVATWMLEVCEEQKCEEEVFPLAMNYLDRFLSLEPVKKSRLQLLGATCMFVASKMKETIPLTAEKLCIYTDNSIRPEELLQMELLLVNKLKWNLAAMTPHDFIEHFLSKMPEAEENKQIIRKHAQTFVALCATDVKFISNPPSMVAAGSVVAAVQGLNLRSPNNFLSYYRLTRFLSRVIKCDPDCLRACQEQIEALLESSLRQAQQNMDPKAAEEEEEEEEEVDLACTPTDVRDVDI
# Chain of CDK4 CCND3 (human) (P11802 whole entry, looked up): as the sequence (P11802 whole entry, looked up) above
# Chain of CDK4 CCND3 (human) (P30281 whole entry, looked up): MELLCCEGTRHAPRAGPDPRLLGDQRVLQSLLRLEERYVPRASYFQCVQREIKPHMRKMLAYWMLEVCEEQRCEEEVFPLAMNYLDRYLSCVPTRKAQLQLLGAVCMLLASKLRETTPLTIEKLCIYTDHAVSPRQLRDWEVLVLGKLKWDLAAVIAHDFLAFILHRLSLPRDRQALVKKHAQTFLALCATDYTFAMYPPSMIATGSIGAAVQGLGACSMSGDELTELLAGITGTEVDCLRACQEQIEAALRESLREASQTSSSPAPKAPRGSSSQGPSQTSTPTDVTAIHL
# Chain of MAP3K3 (human) (Q99759 whole entry, looked up): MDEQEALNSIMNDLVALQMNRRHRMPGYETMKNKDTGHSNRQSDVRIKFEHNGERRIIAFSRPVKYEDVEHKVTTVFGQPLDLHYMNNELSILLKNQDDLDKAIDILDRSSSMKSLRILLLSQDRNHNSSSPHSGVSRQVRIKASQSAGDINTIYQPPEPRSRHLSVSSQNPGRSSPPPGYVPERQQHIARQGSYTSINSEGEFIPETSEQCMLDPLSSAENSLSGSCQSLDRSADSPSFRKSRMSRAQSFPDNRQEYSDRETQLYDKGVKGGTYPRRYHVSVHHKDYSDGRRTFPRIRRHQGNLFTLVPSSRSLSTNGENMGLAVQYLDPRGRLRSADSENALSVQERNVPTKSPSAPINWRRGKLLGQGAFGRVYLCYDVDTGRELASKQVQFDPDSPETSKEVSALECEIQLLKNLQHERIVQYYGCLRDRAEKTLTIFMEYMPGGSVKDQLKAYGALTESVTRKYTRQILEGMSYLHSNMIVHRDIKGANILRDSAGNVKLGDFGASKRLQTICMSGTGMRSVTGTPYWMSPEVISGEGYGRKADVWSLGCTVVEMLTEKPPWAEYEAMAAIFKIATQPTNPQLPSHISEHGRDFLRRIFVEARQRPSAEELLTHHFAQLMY
structure (smiles),measurement,setting,value
CCCNC(=O)Nc1ccc(Oc2ncnc3cc(OC)c(OC)cc23)cc1Cl,residual activity,MARK1 (human),97.6%
same,residual activity,ACVRL1 (human),100%
same,residual activity,MAP3K3 (human),95.3%
same,residual activity,LYN (human),75.5% and 94.1%
same,residual activity,TNK2 (human),96.5%
same,residual activity,GRK4 (human),94.4%
same,residual activity,EPHA5 (human),81.8%
same,residual activity,CDK1 CCNA2 (human),97.7%
same,residual activity,LIMK1 (human),81.6%
same,residual activity,IKBKE (human),93.5%
same,residual activity,BLK (human),96.8%
same,residual activity,STK4 (human),92.8%
same,residual activity,PRKCB1 (human),100%
same,residual activity,MARK2 (human),96.2%
same,residual activity,PHKG2 (human),84.1%
same,residual activity,TAOK1 (human),92.2%
same,residual activity,INSR (human),92.4%
same,residual activity,DAPK2 (human),108%
same,residual activity,NEK3 (human),93.8%
same,residual activity,STK11 (human),87.3%
same,residual activity,PRKCG (human),120%
same,residual activity,NEK1 (human),91.8%
same,residual activity,GRK6 (human),95%
same,residual activity,TSSK1B (human),80.4%
same,residual activity,NUAK2 (human),123%
same,residual activity,PAK7 (human),84.5%
same,residual activity,DCLK2 (human),96.4%
same,residual activity,CAMK4 (human),99.1%
same,residual activity,BMX (human),93.6%
same,residual activity,LRRK2 (human),94.1%
same,residual activity,AURKC (human),71.6%
same,residual activity,PRKCE (human),96.8%
same,residual activity,STK10 (human),35%
same,residual activity,MAP3K9 (human),88.9%
same,residual activity,STK25 (human),92.6%
same,residual activity,CDK4 CCND1 (human),102%
same,residual activity,CSK (human),100%
same,residual activity,PTK2B (human),88%
same,residual activity,MAP3K11 (human),89.2%
same,residual activity,CDK4 CCND3 (human),101%
same,residual activity,DYRK4 (human),106%
same,residual activity,PASK (human),87.7%
O=c1cc(-c2cccc3c2Sc2ccccc2S3)oc(N2CCOCC2)c1,residual activity,MARK1 (human),100%
same,residual activity,ACVRL1 (human),99.9%
same,residual activity,MAP3K3 (human),137%
same,residual activity,LYN (human),106% and 116%
same,residual activity,TNK2 (human),95.7%
same,residual activity,GRK4 (human),105%
same,residual activity,EPHA5 (human),114%
same,residual activity,CDK1 CCNA2 (human),104%
same,residual activity,LIMK1 (human),103%
same,residual activity,IKBKE (human),96.5%
same,residual activity,BLK (human),96.2%
same,residual activity,STK4 (human),95%
same,residual activity,PRKCB1 (human),103%
same,residual activity,MARK2 (human),86.3%
same,residual activity,PHKG2 (human),98.6%
same,residual activity,TAOK1 (human),107%
same,residual activity,INSR (human),105%
same,residual activity,DAPK2 (human),98.8%
same,residual activity,NEK3 (human),102%
same,residual activity,STK11 (human),96.5%
same,residual activity,PRKCG (human),96.9%
same,residual activity,NEK1 (human),100%
same,residual activity,GRK6 (human),83%
same,residual activity,TSSK1B (human),107%
same,residual activity,NUAK2 (human),109%
same,residual activity,PAK7 (human),98.8%
same,residual activity,DCLK2 (human),106%
same,residual activity,CAMK4 (human),94%
same,residual activity,BMX (human),112%
same,residual activity,LRRK2 (human),102%
same,residual activity,AURKC (human),84.9%
same,residual activity,PRKCE (human),109%
same,residual activity,STK10 (human),97.1%
same,residual activity,MAP3K9 (human),95.5%
same,residual activity,STK25 (human),99.6%
same,residual activity,CDK4 CCND1 (human),112%
same,residual activity,CSK (human),95.7%
same,residual activity,PTK2B (human),106%
same,residual activity,MAP3K11 (human),98.6%
same,residual activity,CDK4 CCND3 (human),99.2%
same,residual activity,DYRK4 (human),105%
same,residual activity,PASK (human),101%
